{"source": "patent US20080058373A1", "about": "“Compositions and Methods for Treating or Preventing Glaucoma or Progression Thereof” (priority 2006, published 2008)", "key": {"[1]": {"tested_on": "rabbit eye (anterior chamber paracentesis)", "experiment": "Clinical evaluation by slit lamp (clinical score), rabbit paracentesis model", "format": "in vivo", "design": "key to Clinical Score −180 min / Clinical Score −5 min / Clinical Score +115 min: 0=normal; 1=discrete dilatation of iris and conjunctival vessels; 2=moderate dilatation of iris and conjunctival vessels; 3=intense iridal hyperemia with flare in the anterior chamber; 4=intense iridal hyperemia with flare in the anterior chamber and presence of fibrinous exudates", "settings": "0.1% topical"}, "[2]": {"tested_on": "New Zealand White rabbits", "experiment": "Mortality/morbidity in the rabbit IOP study", "format": "in vivo", "description": "On Days 1-31, animals received daily topical doses of the appropriate test article into the right eye. Animals were dosed four times per day, with doses administered 2 hours apart. Doses were administered using a calibrated 50-μL pipette. The eyelids were held close for 10 seconds immediately following dosing. The time of each dose administration was recorded.\nAnimals determined to be moribund were euthanized with an intravenous injection of commercial euthanasia solution."}, "[3]": {"tested_on": "Prostaglandin E2 (PGE2)", "experiment": "Prostaglandin E2 (PGE2) measurement in aqueous humor, rabbit paracentesis model", "format": "in vivo", "settings": "0.1% topical; second paracentesis; group mean", "description": "(§1) Each rabbit was placed in a restraint device and tagged with the alphanumeric code. The formulations were instilled (50 μl) into the conjunctival sac of both eyes 180, 120, 90 and 30 min before the first paracentesis; then 15, 30, 90 min after the first paracentesis. To perform the first paracentesis the animals were anaesthetized by intravenous injection of 5 mg/kg Zoletil® (Virbac; 2.5 mg/kg tiletamine HCl and 2.5 mg/kg zolazepam HCl) and one drop of local anesthetic (Novesina®, Novartis) was administered to the eye. Anterior chamber paracentesis was performed with a 26 G needle attached to a tuberculin syringe; the needle was introduced into the anterior chamber through the cornea, taking care not to damage the tissues. Two hours after the first paracentesis, the animals were sacrificed with 0.4 ml Tanax® (Intervet International B.V.) and the second paracentesis was performed. About 100 μl of aqueous humor were removed at the second paracentesis. Aqueous humor was immediately split in four aliquots and stored at −80° C. until analysis. Then both eyes were enucleated and the iris-ciliary body was carefully excised, placed in polypropylene tubes, and stored at −80° C. until analysis.\nFor the quantitative determination of PGE2 in the aqueous humor we used the PGE2 Immunoassay kit (R&D Systems; Cat.No. KGE004; Lot.No. 240010). Eleven microliters or 16 μl of aqueous humor were diluted to 110 μl or 160 μl with the calibrator diluent solution provided with the kit. One hundred microliters of samples and of standards were load into a 96-well plate and recorded in a plate layout. Samples were treated following the assay procedure described in the kit. A microplate reader (GDV, Italy; model DV 990 B/V6) set at 450 nm (wavelength correction at 540 nm) was used for making the calibration and analyzing the samples."}, "[4]": {"tested_on": "protein in aqueous humor", "experiment": "Protein measurement in aqueous humor, rabbit paracentesis model", "format": "in vivo", "settings": "0.1% topical", "description": "as §1\nFor protein concentration determination in the aqueous humor we used the Protein Quantification Kit (Fluka; Cat.No. 77371; Lot.No. 1303129). Five microliters of aqueous humor were diluted to 100 μl with water. Twenty microliters of samples and of standards were load into a 96-well plate and recorded in a plate layout. Samples were treated following the assay procedure described in the kit. A microplate reader (GDV, Italy; model DV 990 B/V6) set at 670 nm was used for making the calibration and analyzing the samples."}, "[5]": {"tested_on": "primary human corneal epithelial cells", "experiment": "IL-1β-stimulated cytokine production in primary HCECs (30-cytokine Luminex kit)", "settings": "18 h, P<0.05", "procedure": "Primary HCECs were seeded in 24-well plates. […] Each treatment was performed in triplicate. Media were collected and used for determination of cytokine content using a 30-cytokine Luminex kit. Cell viability was determined by alamarBlue assay (LP06013).\nMedian fluorescence intensity (MFI) was used to obtain the concentration of each cytokines in pg/ml based on the standard curve of each cytokine assayed by Luminex. The linear range of the standard curve for each cytokine was used for determination of cytokine concentration. Duplicate values for each sample were averaged. Data were expressed as mean±SD. Statistical analysis was performed using one-way ANOVA-Dunnett's test, and P<0.05 was considered statistically significant."}, "[6]": {"tested_on": "New Zealand White rabbits", "experiment": "Ophthalmic observations (slit lamp, McDonald Shadduck system) in the rabbit IOP study", "format": "in vivo", "design": "key to Conjunctival congestion Score: A flushed, reddish color predominantly confined to the palpebral conjunctiva with some perilimbal injection but primarily confined to the lower and upper parts of the eye from the 4:00 to 7:00 and 11:00 to 1:00 positions; key to Ophthalmic Observation (Slit-Lamp): AN: Appeared normal", "settings": "0.1% 4 × daily, treated right eye", "description": "Prior to placement on study, each animal underwent a pre-treatment ophthalmic examination (slit lamp and indirect ophthalmoscopy). Observations were scored according to the McDonald Shadduck system and recorded using a standardized data collection sheet.\nOphthalmic examinations (slit lamp) were performed prior to the first dosing on Days 5, 12, 22, 26, and 33. Ocular findings were scored according to the McDonald Shadduck system and recorded using a standardized data collection sheet."}, "[7]": {"settings": "0.1% (0.05 mg/dose) 4 × daily, Group A, individual rabbits"}, "[8]": {"settings": "10 ng/ml IL-1β-stimulated HCECs"}}, "note": "Where “and” joins values, the source holds several entries; their conditions need not be identical. Equal entries are not always repeated. Entries after “also recorded” stand apart in the source; their conditions may differ.", "data": [{"smiles": "C[C@@H]1C[C@H]2[C@@H]3CCC4=CC(=O)C=C[C@]4(C)[C@@]3(F)[C@@H](O)C[C@]2(C)[C@@]1(O)C(=O)CO", "note": "[dexamethasone, reference compound]", "values": [{"measurement": "Clinical Score −5 min", "setting": "[1]; 5 min before the first paracentesis, single eyes, listed as Dex", "result": "0 and 1"}, {"measurement": "Clinical Score +115 min", "setting": "[1]; 5 min before the second paracentesis, single eyes, listed as Dex", "result": "1 and 3"}, {"measurement": "Percentage of eyes with clinical score 1", "setting": "[1]; +115 min, N=8 eyes", "result": 75, "unit": "%"}, {"measurement": "Percentage of eyes with clinical score 3", "setting": "[1]; +115 min, N=8 eyes", "result": 25, "unit": "%"}, {"measurement": "Percentage of eyes with clinical score 0", "setting": "[1]; −5 min, N=8 eyes", "result": 75, "unit": "%"}, {"measurement": "Percentage of eyes with clinical score 1", "setting": "[1]; −5 min, N=8 eyes", "result": 25, "unit": "%"}, {"measurement": "Percentage of eyes with clinical score 0", "setting": "[1]; −180 min (basal), N=8 eyes", "result": 100, "unit": "%"}, {"measurement": "Clinical Score −180 min", "setting": "[1]; −180 min (basal), single eyes", "result": 0}, {"measurement": "Day of Death (day euthanized or found dead)", "setting": "[2]; [7]", "result": "25 (2×) and 27 (2×) and 23 and 13"}, {"measurement": "Recorded Notes (mortality)", "setting": "[2]; [7]", "result": "Euthanized due to severe hemorrhagic diarrhea. Noted to be; also recorded: Euthanized. Very sick/poor health; left (untreated) eye; also recorded: Euthanized due to severe profuse hemorrhagic diarrhea; also recorded: Found dead. No rigor mortis present"}, {"measurement": "Mortality (animals found dead or euthanized prior to study completion/number of animals in group)", "setting": "[2]; 0.1%, 0.05 mg/dose, topical right eye 4 × daily, Day 33", "result": "6/10^(3)"}, {"measurement": "Levels of PGE2 in aqueous humor, Mean", "setting": "[3]", "result": 2.263, "unit": "ng/mL"}, {"measurement": "Protein levels in aqueous humor (raw data)", "setting": "[4]; samples collected at the second paracentesis, single eyes, listed as Dex", "result": "31.31 mg/mL and 31.81 mg/mL and 35.95 mg/mL and 37.15 mg/mL and 32.12 mg/mL and 32.40 mg/mL"}, {"measurement": "Protein levels in aqueous humor, Mean", "setting": "[4]; second paracentesis, group mean", "result": 33.457, "unit": "mg/mL"}, {"measurement": "Concentration at which a significant inhibitory effect was observed on IL-6", "setting": "[5]; [8]", "result": 1, "unit": "nM"}, {"measurement": "Concentration at which a significant inhibitory effect was observed on MCP-1", "setting": "[5]; [8]", "result": 10, "unit": "nM"}, {"measurement": "Concentration at which a significant inhibitory effect was observed on TGF-α", "setting": "[5]; [8]", "result": 10, "unit": "nM"}, {"measurement": "Concentration at which a significant inhibitory effect was observed on TNF-α", "setting": "[5]; [8]", "result": 10, "unit": "nM"}, {"measurement": "Concentration at which a significant inhibitory effect was observed on RANTES", "setting": "[5]; IL-1β-stimulated HCECs", "result": 1, "unit": "µM"}, {"measurement": "Conjunctival congestion Score", "setting": "[6]; Day 5", "result": 1}, {"measurement": "Ophthalmic Observation (Slit-Lamp)", "setting": "[6]; Day 5, 12", "result": "AN"}, {"measurement": "Ophthalmic Observation (Slit-Lamp)", "setting": "[6]; Day 5, 12, 22", "result": "AN"}, {"measurement": "Ophthalmic Observation (Slit-Lamp)", "setting": "[6]; Day 5, 12, 22, 26", "result": "AN"}, {"measurement": "Ophthalmic Observation (Slit-Lamp)", "setting": "[6]; Day 5, 12, 22, 26, 33", "result": "AN"}, {"measurement": "Ophthalmic Observation (Slit-Lamp)", "setting": "[6]; Day 5, 12, 26, 33", "result": "AN"}, {"measurement": "Ophthalmic Observation (Slit-Lamp)", "setting": "[6]; Day 12, 22, 26", "result": "AN"}, {"measurement": "Conjunctival congestion Score", "setting": "[6]; Day 22", "result": 1}]}]}
